Assays:
Test in all cases: KinomeScan profiling
Type in all cases: binding
[1] = target: T1, ABL1(F317L)-nonphosphorylated (Homo sapiens, UniProt P00519, F317L); conditions: read-out: % control
T1 construct: purchased KinomeScan®
Outline: (§1)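 Normalised RLU (% control; DMSO 100%, positive control 0%) was measured for compounds dosed at 1 μM over 468 kinases, active cut-off <35%.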

KIT = target: T2, KIT (Homo sapiens, UniProt P10721); conditions: read-out: % control
T2 construct: purchased KinomeScan®
Outline: as §1

HASPIN = target: T3, HASPIN (Homo sapiens, UniProt Q8TF76); conditions: read-out: % control
T3 sequence (Q8TF76 1-798): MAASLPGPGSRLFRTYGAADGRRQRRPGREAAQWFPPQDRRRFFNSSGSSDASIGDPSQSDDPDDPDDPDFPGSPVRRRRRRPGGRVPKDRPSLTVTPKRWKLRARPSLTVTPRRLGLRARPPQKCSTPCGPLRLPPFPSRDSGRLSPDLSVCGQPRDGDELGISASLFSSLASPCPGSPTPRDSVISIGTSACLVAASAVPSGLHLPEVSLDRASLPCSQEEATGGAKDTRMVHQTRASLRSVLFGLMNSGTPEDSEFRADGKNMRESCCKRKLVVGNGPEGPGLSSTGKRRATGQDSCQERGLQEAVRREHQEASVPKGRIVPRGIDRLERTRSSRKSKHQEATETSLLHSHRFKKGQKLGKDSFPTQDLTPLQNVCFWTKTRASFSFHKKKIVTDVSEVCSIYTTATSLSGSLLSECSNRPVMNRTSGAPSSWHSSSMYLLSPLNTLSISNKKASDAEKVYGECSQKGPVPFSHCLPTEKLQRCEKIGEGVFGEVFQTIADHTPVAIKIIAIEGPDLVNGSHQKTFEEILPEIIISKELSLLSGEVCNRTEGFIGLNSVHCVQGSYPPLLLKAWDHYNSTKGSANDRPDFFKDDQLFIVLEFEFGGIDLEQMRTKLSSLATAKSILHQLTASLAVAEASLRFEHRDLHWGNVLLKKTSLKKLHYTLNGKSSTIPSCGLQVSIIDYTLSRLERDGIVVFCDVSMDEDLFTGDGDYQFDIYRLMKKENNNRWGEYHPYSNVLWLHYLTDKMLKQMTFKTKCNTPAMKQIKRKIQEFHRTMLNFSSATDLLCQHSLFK
Outline: as §1

LRRK2(G2019S) = LRRK2(G2019S) (Homo sapiens, UniProt Q5S007, G2019S); conditions: read-out: % control
Sequence of LRRK2(G2019S) (Q5S007 whole entry G2019S): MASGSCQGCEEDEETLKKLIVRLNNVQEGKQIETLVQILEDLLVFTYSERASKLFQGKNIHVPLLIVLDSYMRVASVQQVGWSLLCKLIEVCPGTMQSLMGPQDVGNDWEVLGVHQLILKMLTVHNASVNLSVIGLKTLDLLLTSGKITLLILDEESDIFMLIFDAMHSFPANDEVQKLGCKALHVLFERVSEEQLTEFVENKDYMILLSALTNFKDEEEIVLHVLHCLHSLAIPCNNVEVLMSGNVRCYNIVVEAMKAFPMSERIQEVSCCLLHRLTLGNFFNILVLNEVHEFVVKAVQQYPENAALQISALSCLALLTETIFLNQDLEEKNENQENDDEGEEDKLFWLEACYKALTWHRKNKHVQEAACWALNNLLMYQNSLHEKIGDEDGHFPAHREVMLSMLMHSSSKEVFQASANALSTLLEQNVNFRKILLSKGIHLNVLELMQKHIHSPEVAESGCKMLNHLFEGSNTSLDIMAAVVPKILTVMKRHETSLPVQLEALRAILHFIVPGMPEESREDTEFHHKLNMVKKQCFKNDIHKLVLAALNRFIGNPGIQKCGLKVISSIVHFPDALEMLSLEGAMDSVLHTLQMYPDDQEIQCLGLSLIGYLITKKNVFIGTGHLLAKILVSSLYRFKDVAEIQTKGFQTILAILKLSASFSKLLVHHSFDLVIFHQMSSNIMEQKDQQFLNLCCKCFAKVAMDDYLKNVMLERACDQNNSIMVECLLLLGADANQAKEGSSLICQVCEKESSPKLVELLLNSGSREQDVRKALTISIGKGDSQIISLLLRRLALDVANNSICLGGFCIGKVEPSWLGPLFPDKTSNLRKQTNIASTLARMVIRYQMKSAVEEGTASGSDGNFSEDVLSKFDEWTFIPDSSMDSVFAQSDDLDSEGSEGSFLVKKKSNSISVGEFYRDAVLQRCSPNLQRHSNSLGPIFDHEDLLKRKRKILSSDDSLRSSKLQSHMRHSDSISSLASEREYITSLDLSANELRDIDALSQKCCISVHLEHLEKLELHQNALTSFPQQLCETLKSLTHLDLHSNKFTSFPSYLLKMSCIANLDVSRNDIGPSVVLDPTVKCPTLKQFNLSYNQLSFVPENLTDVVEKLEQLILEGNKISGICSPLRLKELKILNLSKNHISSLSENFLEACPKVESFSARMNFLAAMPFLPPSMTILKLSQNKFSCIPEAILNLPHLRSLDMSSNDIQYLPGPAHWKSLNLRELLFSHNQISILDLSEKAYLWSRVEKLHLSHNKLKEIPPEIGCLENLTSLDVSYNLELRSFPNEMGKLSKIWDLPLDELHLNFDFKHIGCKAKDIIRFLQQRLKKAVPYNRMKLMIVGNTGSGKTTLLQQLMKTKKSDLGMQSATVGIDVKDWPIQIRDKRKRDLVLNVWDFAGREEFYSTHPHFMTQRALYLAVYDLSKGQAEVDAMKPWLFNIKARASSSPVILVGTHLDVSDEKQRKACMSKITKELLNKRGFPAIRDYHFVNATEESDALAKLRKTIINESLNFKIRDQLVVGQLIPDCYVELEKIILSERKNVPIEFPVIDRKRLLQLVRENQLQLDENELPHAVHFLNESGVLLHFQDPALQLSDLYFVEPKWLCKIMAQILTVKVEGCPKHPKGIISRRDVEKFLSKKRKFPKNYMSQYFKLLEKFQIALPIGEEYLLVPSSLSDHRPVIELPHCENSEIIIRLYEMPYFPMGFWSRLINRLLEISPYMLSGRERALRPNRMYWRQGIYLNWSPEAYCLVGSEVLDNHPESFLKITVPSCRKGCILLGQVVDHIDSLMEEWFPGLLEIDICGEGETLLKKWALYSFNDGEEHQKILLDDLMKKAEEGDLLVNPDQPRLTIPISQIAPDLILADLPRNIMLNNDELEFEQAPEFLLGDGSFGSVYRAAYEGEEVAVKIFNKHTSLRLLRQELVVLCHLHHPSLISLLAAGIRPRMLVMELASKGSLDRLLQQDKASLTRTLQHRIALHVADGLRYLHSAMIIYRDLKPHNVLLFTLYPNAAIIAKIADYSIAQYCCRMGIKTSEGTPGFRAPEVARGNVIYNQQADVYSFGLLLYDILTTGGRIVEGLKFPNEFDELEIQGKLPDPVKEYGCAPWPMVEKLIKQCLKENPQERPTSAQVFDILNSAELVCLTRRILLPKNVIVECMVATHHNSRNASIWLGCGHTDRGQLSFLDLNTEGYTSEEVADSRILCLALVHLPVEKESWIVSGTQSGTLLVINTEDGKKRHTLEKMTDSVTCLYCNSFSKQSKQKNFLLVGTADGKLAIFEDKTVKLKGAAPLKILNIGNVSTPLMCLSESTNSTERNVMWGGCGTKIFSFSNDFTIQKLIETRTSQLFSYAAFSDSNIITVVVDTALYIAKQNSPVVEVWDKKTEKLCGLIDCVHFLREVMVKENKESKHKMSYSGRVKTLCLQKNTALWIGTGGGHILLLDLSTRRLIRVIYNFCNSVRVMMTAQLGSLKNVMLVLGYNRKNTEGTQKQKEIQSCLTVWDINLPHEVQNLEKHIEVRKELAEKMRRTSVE
Outline: as §1

IRAK1 = target: T4, IRAK1 (Homo sapiens, UniProt P51617); conditions: IRAK1, 1 μM; read-out: % control
T4 construct: purchased KinomeScan®
T4 sequence (P51617 whole entry): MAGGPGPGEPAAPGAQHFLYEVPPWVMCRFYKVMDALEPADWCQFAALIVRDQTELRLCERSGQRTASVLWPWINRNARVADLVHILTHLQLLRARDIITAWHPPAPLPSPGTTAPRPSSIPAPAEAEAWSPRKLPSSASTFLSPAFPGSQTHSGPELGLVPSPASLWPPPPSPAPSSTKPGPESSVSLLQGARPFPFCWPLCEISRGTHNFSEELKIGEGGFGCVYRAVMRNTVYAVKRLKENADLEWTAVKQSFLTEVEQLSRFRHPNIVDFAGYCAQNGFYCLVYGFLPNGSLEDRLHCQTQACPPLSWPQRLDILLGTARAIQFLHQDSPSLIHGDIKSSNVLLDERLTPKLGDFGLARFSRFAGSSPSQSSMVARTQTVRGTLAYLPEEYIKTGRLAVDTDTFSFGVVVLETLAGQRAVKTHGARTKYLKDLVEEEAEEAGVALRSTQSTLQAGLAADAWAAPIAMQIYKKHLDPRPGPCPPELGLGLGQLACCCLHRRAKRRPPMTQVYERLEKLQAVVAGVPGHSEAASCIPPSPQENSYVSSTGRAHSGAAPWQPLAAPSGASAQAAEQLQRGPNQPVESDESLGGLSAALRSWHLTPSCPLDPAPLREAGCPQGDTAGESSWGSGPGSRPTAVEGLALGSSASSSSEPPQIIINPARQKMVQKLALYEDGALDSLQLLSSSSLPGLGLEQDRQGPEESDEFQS
Outline: as §1

WNK3 = WNK3 (Homo sapiens, UniProt Q9BYP7); conditions: WNK3, 1 μM; read-out: % control
Sequence of WNK3 (Q9BYP7 whole entry): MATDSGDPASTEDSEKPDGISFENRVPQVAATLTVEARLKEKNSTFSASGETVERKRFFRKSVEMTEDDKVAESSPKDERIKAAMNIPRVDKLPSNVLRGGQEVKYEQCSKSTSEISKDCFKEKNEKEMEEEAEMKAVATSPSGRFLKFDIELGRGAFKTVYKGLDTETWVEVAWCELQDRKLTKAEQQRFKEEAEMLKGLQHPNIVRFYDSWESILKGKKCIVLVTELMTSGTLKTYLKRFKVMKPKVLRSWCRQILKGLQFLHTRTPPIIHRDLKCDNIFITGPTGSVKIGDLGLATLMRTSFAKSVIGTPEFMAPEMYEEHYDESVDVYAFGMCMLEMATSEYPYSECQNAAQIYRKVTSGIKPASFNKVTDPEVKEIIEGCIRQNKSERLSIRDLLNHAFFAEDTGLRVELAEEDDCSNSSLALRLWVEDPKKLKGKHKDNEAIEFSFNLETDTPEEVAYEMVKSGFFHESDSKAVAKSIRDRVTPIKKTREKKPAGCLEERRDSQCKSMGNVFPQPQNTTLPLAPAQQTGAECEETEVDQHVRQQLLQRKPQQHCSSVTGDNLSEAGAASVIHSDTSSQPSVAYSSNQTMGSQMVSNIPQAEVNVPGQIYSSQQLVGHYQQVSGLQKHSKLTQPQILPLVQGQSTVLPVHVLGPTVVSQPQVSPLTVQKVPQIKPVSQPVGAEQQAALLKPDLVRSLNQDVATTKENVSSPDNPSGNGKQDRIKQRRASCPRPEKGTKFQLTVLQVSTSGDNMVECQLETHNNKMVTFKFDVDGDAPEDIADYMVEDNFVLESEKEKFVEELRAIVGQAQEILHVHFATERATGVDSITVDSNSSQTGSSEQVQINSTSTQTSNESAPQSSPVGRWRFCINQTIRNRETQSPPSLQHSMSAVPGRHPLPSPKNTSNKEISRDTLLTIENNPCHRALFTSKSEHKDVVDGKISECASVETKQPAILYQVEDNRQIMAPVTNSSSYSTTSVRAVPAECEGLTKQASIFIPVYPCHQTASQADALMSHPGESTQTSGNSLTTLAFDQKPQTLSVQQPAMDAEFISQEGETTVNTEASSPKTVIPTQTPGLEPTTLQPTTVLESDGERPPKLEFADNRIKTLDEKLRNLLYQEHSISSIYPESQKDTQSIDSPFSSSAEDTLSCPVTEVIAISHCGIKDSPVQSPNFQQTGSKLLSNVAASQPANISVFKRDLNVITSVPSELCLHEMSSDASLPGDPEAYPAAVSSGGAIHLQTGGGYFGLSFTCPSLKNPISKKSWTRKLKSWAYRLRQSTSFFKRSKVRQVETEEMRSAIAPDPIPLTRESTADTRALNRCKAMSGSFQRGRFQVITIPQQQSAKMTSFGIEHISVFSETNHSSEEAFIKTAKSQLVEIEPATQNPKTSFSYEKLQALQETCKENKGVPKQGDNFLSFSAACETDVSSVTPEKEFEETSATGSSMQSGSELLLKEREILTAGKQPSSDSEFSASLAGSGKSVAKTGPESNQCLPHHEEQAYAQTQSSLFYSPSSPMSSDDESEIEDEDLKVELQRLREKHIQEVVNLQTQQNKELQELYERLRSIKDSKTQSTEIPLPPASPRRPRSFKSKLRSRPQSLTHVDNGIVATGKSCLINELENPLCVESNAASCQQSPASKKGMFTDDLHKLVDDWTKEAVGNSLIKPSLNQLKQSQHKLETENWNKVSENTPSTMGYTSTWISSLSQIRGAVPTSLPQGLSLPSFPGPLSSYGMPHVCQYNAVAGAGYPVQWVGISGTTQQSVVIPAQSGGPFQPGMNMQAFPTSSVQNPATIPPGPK
Outline: as §1

MAP4K3 = target: T5, MAP4K3 (Homo sapiens, UniProt Q8IVH8); conditions: MAP4K3, 1 μM; read-out: % control
T5 sequence (Q8IVH8 1-894): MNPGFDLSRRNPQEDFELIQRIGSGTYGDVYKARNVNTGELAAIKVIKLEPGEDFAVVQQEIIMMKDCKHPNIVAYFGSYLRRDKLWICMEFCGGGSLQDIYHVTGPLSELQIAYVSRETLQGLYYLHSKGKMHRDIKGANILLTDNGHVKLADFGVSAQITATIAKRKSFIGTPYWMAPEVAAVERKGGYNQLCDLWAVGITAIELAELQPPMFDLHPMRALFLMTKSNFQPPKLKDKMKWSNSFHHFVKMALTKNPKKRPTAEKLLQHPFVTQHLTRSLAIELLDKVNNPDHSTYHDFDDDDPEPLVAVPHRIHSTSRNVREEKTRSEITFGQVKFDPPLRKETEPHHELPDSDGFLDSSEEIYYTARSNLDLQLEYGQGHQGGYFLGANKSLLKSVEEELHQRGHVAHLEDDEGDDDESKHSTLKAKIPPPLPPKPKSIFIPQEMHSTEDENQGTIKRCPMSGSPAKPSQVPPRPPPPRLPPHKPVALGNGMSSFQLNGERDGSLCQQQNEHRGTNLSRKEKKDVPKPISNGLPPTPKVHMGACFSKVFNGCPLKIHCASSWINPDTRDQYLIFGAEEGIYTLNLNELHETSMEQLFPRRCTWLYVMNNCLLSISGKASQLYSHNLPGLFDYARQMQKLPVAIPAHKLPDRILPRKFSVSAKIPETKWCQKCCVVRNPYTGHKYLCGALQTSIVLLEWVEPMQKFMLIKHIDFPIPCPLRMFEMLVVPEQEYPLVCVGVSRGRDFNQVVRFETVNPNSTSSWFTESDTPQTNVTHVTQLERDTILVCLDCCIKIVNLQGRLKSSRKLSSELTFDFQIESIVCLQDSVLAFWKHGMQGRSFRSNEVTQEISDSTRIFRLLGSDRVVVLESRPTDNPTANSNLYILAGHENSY
Outline: as §1

SMILES | remaining binding at 1 µM [1] [%] | remaining binding at 1 µM (KIT) [%] | remaining binding at 1 µM (HASPIN) [%] | remaining binding at 1 µM (LRRK2(G2019S)) [%] | remaining binding at 1 µM (IRAK1) [%] | remaining binding at 1 µM (WNK3) [%] | remaining binding at 1 µM (MAP4K3) [%]
CNc1c(-c2cnn([C@H]3CCN(C(C)=O)C[C@@H]3F)c2)cnc2[nH]cc(Cl)c12 [Compound 77, 1-((3S,4S)-4-(4-(3-chloro-4-(methylamino)-1H-pyrrolo[2,3-b]pyridin-5-yl)-1H-pyrazol-1-yl)-3-fluoropiperidin-1-yl)ethan-1-one] | 95 | 4.8 | 9.8 | 11 | 33 | 86 | 94
O=C(c1ccc(-c2cnc3[nH]cc(Cl)c3c2NC2CCCC2)cc1)N1CCC(N2CCOCC2)CC1 [Compound 101, (4-(3-chloro-4-(cyclopentylamino)-1H-pyrrolo[2,3-b]pyridin-5-yl)phenyl)(4-morpholinopiperidin-1-yl)methanone] | 10 | 58 | 22 | 22 | 100 | 92 | 74
CNc1c(-c2ccc(C(=O)N3CCC(N4CCOCC4)CC3)cc2)cnc2[nH]cc(Cl)c12 [Compound 96, (4-(3-chloro-4-(methylamino)-1H-pyrrolo[2,3-b]pyridin-5-yl)phenyl)(4-morpholinopiperidin-1-yl)methanone] | 100 | 11 | 1.3 | 3.2 | 41 | 73 | 83

Reference: patent US12275731B2, “Azaindole inhibitors of wild-type and mutant forms of LRRK2” (DANA-FARBER CANCER INSTITUTE, INC., priority 2018, dated 2025)
